Data set [1] concerns the target T1, BRD4 BD1 (Homo sapiens, UniProt O60885).
T1 construct: HEK293 cells were transfected using NanoLuc-BRD4-BD1 or NanoLuc-BRD4-BD2 fusion vectors; host or cells: HEK293
The data set can be described thus: NanoBRET bromodomain assay, NanoLuc-BRD4-BD1 fusion vector in HEK293 cells. In kind it is cell-based. The following applies: top concentration 10 μM. From the text: (§1) Bromodomain Assay Procedure

For data set [2], the target named is T2, BRD4 BD2 (Homo sapiens, UniProt O60885).
T2 construct: HEK293 cells were transfected using NanoLuc-BRD4-BD1 or NanoLuc-BRD4-BD2 fusion vectors; host or cells: HEK293
The data set can be described thus: NanoBRET bromodomain assay, NanoLuc-BRD4-BD2 fusion vector in HEK293 cells. It is filed as cell-based. To be noted: NanoBRET, HEK293 cells, top concentration 10 μM.
Description: as §1
Background: BRET reads energy transfer from a luciferase to a nearby fluorophore.

The nature of data set [3]: Plasma stability assay, rat plasma. To be noted: 37° C. It is filed as in vitro ADME. How it is done:
Exemplary compounds of the disclosure are stable upon incubation in mouse plasma. Stability is expressed as a % remaining after 120 minutes. The experimental methods and results (Table 2) are provided hereinafter.
Plasma Stability Assay, Method 1
From stock solution of compound in 10 mM DMSO, a working solution of 1 mM is prepared by diluting the compound in DMSO. To 398 μL of plasma pre-warmed at 37° C. for 15 minutes), 2 μL of working solution of compound is added, resulting in a final concentration of 5 μM (0.5% DMSO) for the compound. The sample is then incubated at 37° C. Aliquot is withdrawn at specified time-points (0, 15, 30, 60 and 120 mins). The reaction is stopped by addition of 450 μL cold acetonitrile containing internal standard (IS). […] Aliquots of the supernatant is analysed using LC-MS/MS. The percent remaining of the compound at each time point is calculated with respect to the control sample (0 min time-point).
Plasma Stability Assay, Method 2
A working solution of compound (500 μM) is prepared in DMSO (100%). To 735 μL of plasma, 15 μL of working solution of compound is added—resulting in a final concentration of 10 μM (2% DMSO) for the compound. The sample is then incubated at 37° C. Aliquot is withdrawn at time-points—0, 15, 30, 60, 90 and 120 mins. The reaction is stopped by using chilled acetonitrile containing internal standard (IS). The samples are centrifuged and the supernatants analyzed using LC-MS/MS. The percent remaining of the compound at each time point is calculated with respect to the control sample (0 min time-point).

Data set [4] can be described thus: Sprague-Dawley rat pharmacokinetics (IV and PO). It is filed as in vivo. To be noted: male Sprague-Dawley rats, cassette mode, Method 1. An excerpt: BET protein inhibitors with a long half-life and good oral bioavailability in in vivo DMPK parameters are promising oral drug candidates. Some of the exemplary compounds of the current disclosure have a long half-life and good oral bioavailability in in vivo DMPK parameters in the Sprague-Dawley rat following intravenous (IV) and oral (PO) dosing. The experimental methods and results (Table 5) are provided hereinafter.
Sprague-Dawley Rat Pharmacokinetics, Method 1
Compounds were formulated in 5% DMSO, 40% PEG-400, 55% Milli-Q water at a concentration of 0.2 mg/mL for IV and at 0.5 mg/mL for PO. Two male Sprague-Dawley rats per arm were dosed with up to 5 compounds in cassette mode, which each compound being dosed at 1 mg/kg IV and 5 mg/kg PO. Blood was sampled at various timepoints and plasma isolated. 50 μL of plasma with 5 μL of blank Sprague-Dawley rat plasma were added to 200 μL of acetonitrile containing IS mixture. The samples were vortexed for 30 s. After centrifugation at 4 degrees Celsius, 3900 rpm for 15 min, the supernatant was diluted 3 times with water. 20 μL of diluted supernatant was injected into the LC/MS/MS system for quantitative analysis and concentration of analyte determined by comparison with matrix matched standard curve. WinNonlin (Phoenix™, version 8.3) or other similar software may be used for pharmacokinetic calculations.

A short description of data set [5]: Plasma stability assay, human plasma. In kind it is in vitro ADME. To be noted: 37° C., Method 1 (5 μM).
The nature of data set [6]: Intrinsic clearance in liver microsomes, mouse. In kind it is in vitro ADME. To be noted: pH 7.4, mouse liver microsomes 0.5 mg/mL, Method 1, read-out: Half-Life (T1/2) (min) Mouse. How it is done:
(§2) BET protein inhibitors with a long half-life in liver microsomes from various species are in some embodiments promising oral drug candidates. Some of the exemplary compounds of the current disclosure have a long half-life in liver microsomes, expressed in minutes. The experimental methods and results (Table 3) are provided hereinafter.
(§3) Intrinsic Clearance in Liver Microsomes Assay, Method 1
(§4) From stock solution of compound on 10 mM DMSO, a working solution of 0.1 mM is prepared by diluting the compound in DMSO. 6.25 μL of a 20 mg/mL solution of microsomes in PBS pH 7.4 buffer is added to 216.25 μL PBS pH 7.4 buffer (final microsome concentration—0.5 mg/mL). 25 μL of 10 mM solution of NADPH in PBS pH 7.4 buffer is added to the incubations (final NADPH concentration—1 mM). The mixture is pre-warmed to 37° C. for 10 minutes. 2.5 μL of test compound working solution is added (final compound concentration—1 μM with 1% DMSO). […] The percent compound remaining at each time point is calculated with respect to that of the 0.5 min sample. The data are analysed to calculate half-life. […]
(§5) A 50 mM stock solution (in DMSO) is prepared for the compound. […] The samples are centrifuged, and the supernatants analysed by LC-MS/MS. The percent compound remaining at each time point is calculated with respect to that of the 0 min sample. The data are then analysed to calculate half-life and intrinsic clearance (CLint). […]
(In general: Microsomes from liver hold many membrane-bound enzymes, among them those of drug oxidation.)

Data set [7] is described as follows: Intrinsic clearance in liver microsomes, rat. In kind it is in vitro ADME. The following applies: pH 7.4, rat liver microsomes 0.5 mg/mL, Method 1, read-out: Half-Life (T1/2) (min) Rat. How it is done: as §2, §3, §4, §5
For data set [8], the system named is IL-17A. In words: Human PBMC assay, IL-17A by ELISA (CD2/CD3/CD28 bead stimulation). It is filed as cell-based. The following applies: 72 hours. How it is done:
(§6) CD2, CD3, and CD28 antibody-coated beads from the T-cell activation/expansion kit (Miltenyi Biotec) were added to the PBMC at a bead-to-cell ratio of 1:2. The mixture of PBMCs and beads were seeded into the wells of the round-bottom 96-well plate at a concentration of 2×10^5 cells/well in a total volume of 200 μL. The cells were cultured for 72 hours at 37° C. and 5% CO2 and then supernatants were collected and IL-17A and IL-22 levels were measured by ELISA. […] The final compound concentration ranged from 30,000 nM to 0.005 nM and the final DMSO concentration per well was 0.3%. PBMCs were seeded at approximately […] in the wells of the 96-well tissue culture plate in a total volume of 190 μL. The plate was incubated for 1 hour at 37° C. and 5% CO2. […] The cells were then cultured for 24 hours at 37° C. and 5% CO2. The supernatant was collected and CXCL10 levels were measured by ELISA.
For orientation: In an ELISA, binding on a coated surface is turned into a signal by an enzyme label.

Data set [9] relates to IL-22. The data set can be described thus: Human PBMC assay, IL-22 by ELISA (CD2/CD3/CD28 bead stimulation). To be noted: 72 hours. It is filed as cell-based. How it is done:
as §6

Data set [10] concerns CXCL10. In words: Human PBMC assay, CXCL10 by ELISA (IFN-γ stimulation). It is filed as cell-based. The procedure: The impact of Examples 23, 80, and 101 on IL-17A, IL-22, and CXCL10 levels was analyzed in cryopreserved human peripheral blood mononuclear cells (PBMC) by ELISA.
For IL-17A and IL-22 assays, Examples 23, 80, and 101 were serially diluted from 10 mM in DMSO and further diluted in assay media to 100× the required final concentration, of which, 2 μL was added per well to a round-bottom 96-well tissue culture plate where the final DMSO concentration per well was 0.1%. CD2, CD3, and CD28 antibody-coated beads from the T-cell activation/expansion kit (Miltenyi Biotec) were added to the PBMC at a bead-to-cell ratio of 1:2. The mixture of PBMCs and beads were seeded into the wells of the round-bottom 96-well plate at a concentration of 2×10^5 cells/well in a total volume of 200 μL. The cells were cultured for 72 hours at 37° C. and 5% CO2 and then supernatants were collected and IL-17A and IL-22 levels were measured by ELISA. For the CXCL10 assay, Examples 23, 80, and 101 were serially diluted from 10 mM in DMSO and further diluted in assay media to 100× the required final concentration, of which 2 μL was added per well to a 96-well tissue culture plate. The final compound concentration ranged from 30,000 nM to 0.005 nM and the final DMSO concentration per well was 0.3%. PBMCs were seeded at approximately […] in the wells of the 96-well tissue culture plate in a total volume of 190 μL. The plate was incubated for 1 hour at 37° C. and 5% CO2. The cells were then stimulated with IFN-γ (15 ng/mL final concentration) in a volume of 10 μL. The cells were then cultured for 24 hours at 37° C. and 5% CO2. The supernatant was collected and CXCL10 levels were measured by ELISA.

As to `CNC(=O)c1[nH]c(C(=O)NC2COC2)cc1OC(C)c1ccc(Cl)cc1` (single isomer, unassigned) [Example 31, 3-(1-(4-chlorophenyl)ethoxy)-N^2-methyl-N^5-(oxetan-3-yl)-1H-pyrrole-2,5-dicarboxamide], the IC50 (usually the concentration that gives 50% inhibition) in data set [1] was not below 10 µM; in data set [2] it was 0.05 to 0.2 µM. Also, the “Plasma Stability (% remaining at 120 minutes) Rat” value in data set [3] (Method 2 (10 μM)) turned out to be 81%. Also, in data set [4] (IV 1 mg/kg), the “IV T1/2” value came to 0.6 h. Also, the “PO F (%)” value in data set [4] (PO 5 mg/kg (IV 1 mg/kg)) stood at 15%.

As to `CNC(=O)c1[nH]c(C(=O)N[C@H]2CC[C@H](O)CC2)cc1OC(C)c1ccccc1F` (single isomer, unassigned) [Example 45], the values for the IC50 in [1] and in [2] were not below 10 µM and 0.05 to 0.2 µM, respectively. The “Plasma Stability (% remaining at 120 minutes) Rat” value in data set [3] (Method 2 (10 μM)) is 88%.

Turning to `CCNC(=O)c1cc(OC(C)c2c(F)cccc2F)c(C(=O)NC)[nH]1` (single isomer, unassigned) [Example 55, 3-(1-(2,6-difluorophenyl)ethoxy)-N^5-ethyl-N^2-methyl-1H-pyrrole-2,5-dicarboxamide], the IC50 is not below 10 µM in [1] and more than 10 µM in [2]. In addition, in data set [3] (Method 2 (10 μM)), the “Plasma Stability (% remaining at 120 minutes) Rat” value amounted to 88%.

Turning to `CNC(=O)c1[nH]c(C(=O)N[C@H]2CC[C@H](O)CC2)cc1O[C@@H](C)c1ccccc1` (single isomer, unassigned) [Example 97], the “Plasma Stability (% remaining at 120 minutes) Rat” value in data set [3] (Method 1 (5 μM)) is on record as more than 99%. The “Plasma Stability (% remaining at 120 minutes) Human” value in data set [5] is on record as more than 99%. Further, the half-life at 1 μM was 70 min in data set [6] and more than 60 min in data set [7]. Moreover, the bioavailability in data set [4] (rat, plasma, PO 5 mg/kg (IV 1 mg/kg), read-out: PO F (%)) turned out to be 60%.

On to `CNC(=O)c1[nH]c(-c2ncc(C)[nH]2)cc1O[C@@H](C)c1ccccc1` [Example 23, (S)—N-methyl-5-(5-methyl-1H-imidazol-2-yl)-3-(1-phenylethoxy)-1H-pyrrole-2-carboxamide], for which the “IC50 for IL-17A relative to GSK620” value in [8] was “decreased mean 1050”. Moreover, in [9], the “IC50 for IL-22 relative to GSK620” value is “decreased mean 1050”. Also, in data set [10], the “selectivity to induction of CXCL10 relative to IL-17A and IL-22” value was “showed selectivity”.

In the case of `CNC(=O)c1[nH]c(-c2cnn(C(C)C)c2)cc1O[C@@H](C)c1ccccc1` [Example 80, (S)-5-(1-isopropyl-1H-pyrazol-4-yl)-N-methyl-3-(1-phenylethoxy)-1H-pyrrole-2-carboxamide], the “IC50 for IL-17A relative to GSK620” value in data set [8] is “increased mean 1050”. Also, the “IC50 for IL-22 relative to GSK620” value in data set [9] is given as “decreased mean 1050”. The “selectivity to induction of CXCL10 relative to IL-17A and IL-22” value in data set [10] is given as “showed selectivity”.

Source of the values: patent publication US20260000642A1 (Tay Therapeutics Limited, priority 2022, published 2026).
